According to US20250074910A1, “MENIN INHIBITOR AND USE THEREOF” (HITGEN INC., priority 2021, published 2025):
“And” between values parts separate entries of the source, which are not always exact repeats. Identical values can stand only once. Like-named read-outs stand apart in the source and are kept apart here.

Columns and labels:
[1] = Stability in human liver microsomes; assay type: in vitro ADME; settings: human, liver microsomes, pH 7.4, Human; 0.5 mg/mL microsomal protein, 1.00 μM compound, NADPH; read-out: Half life T1/2, human liver microsomes
Description: (§1) Test Example 3: Test of Stability of Compounds in Liver Microsome
(§2) Test purpose: To determine the stability of some of the compounds of the present disclosure in mouse, dog and human liver microsomes by LC-MS/MS method.
(§3) Test materials: The test drugs were in-house prepared example compounds of the present disclosure; the positive reference compound SNDX-5613 was prepared by the method of Example 253 in patent WO2017214367; the control compound 1 was prepared by the method of Example 64 in WO2017214367; liver microsomes were purchased from CORNING.
(§4) The total volume of each incubation system was approximately 45 μL, and the medium was 100 mM phosphate buffer (PBS, pH 7.4), including liver microsomal protein at a final concentration of 0.5 mg/mL, 1.00 μM compound and 2.00 mM NADPH, and the organic phase content was <1%. Incubation was performed in a 37° C. incubator, and 135 μL of ice-cold acetonitrile was added after 0, 5, 15, 30 and 60 min of reaction to terminate the reaction. The positive control group was incubated with 1.00 μM Ketanserin, 0.5 mg/mL liver microsomal protein and 2.00 mM NADPH in a 37° C. incubator for 0, 5, 15, 30 and 60 min respectively, and then 135 μL of ice-cold acetonitrile was added to terminate the reaction. The 96-well plates were shaken at 600 rpm for 10 min and then centrifuged at 4700 rpm at 4° C. for 15 min. 80 μL of supernatant was mixed with 320 μL of pure water, and the remaining amount of the compound was detected by LC-MS/MS method. The in vitro half life (T½) and intrinsic clearance (CLint) were calculated according to the following formula:
(§5) Intrinsic clearance (Clint)=(0.693/T1/2)×(1/liver microsome concentration)×conversion factor. k is the linear regression slope of the remaining percentage of the ln compound-incubation time.

MV4-11 = assay: Cell proliferation inhibition (CellTiter-Glo), MV4-11; assay type: cell-based; settings: MV4-11 cells
Procedure, shortened: (§6)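 Seed 5,000-20,000 cells/well; add compound to final 1 nM-10 μM; culture 72-168 h at 37° C, 5% CO2; add equal volume CellTiter-Glo, 10 min RT; read luminescence; fit IC50.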

[2] = Stability in mouse liver microsomes; assay type: in vitro ADME; settings: liver microsomes, pH 7.4, 0.5 mg/mL microsomal protein, 1.00 μM compound, NADPH, read-out: Half life T1/2, mouse liver microsomes
Description: as §1, §2, §3, §4, §5

MOLM-13 = assay: Cell proliferation inhibition (CellTiter-Glo), MOLM-13; assay type: cell-based; settings: MOLM-13 cells
Description: Test Example 2: Test of the Inhibitory Ability of Menin-MLL Interaction Inhibitors on Cell Proliferation
The inhibitory ability of the compounds of the present disclosure on the proliferation of tumor cell lines (including cell lines containing MLL fusion protein such as MV4-11, MOLM-13, THP-1 and NOMO-1, control cell lines without MLL fusion protein such as HL-60, K562 and MOLM-16, and cell lines containing NPM1 mutation such as OCI-AML3) was evaluated by using the cell viability analysis method. The cells were plated in 96-well plates at a certain concentration (e.g., 5,000-20,000 cells/well), and then an equal volume of culture medium containing 2 times the final concentration of the test compound (the final concentration ranging 10 from 1 nM to 10 μM) was added. The plates were placed in an incubator and cultured at 37° C. and 5% CO2 for 72-168 h. Before the test, an equal volume of CellTiter-Glo® Luminescent reagent was added, and the plate was incubated at room temperature for 10 min before detection using an ELISA reader (BMG LABTECH). The data were analyzed using GraphPad Prism software to obtain the IC50 value and compound fitting curve. The control compound 1 was prepared by referring to the method of Example 64 in WO2017214367.

[3] = molecular target: Menin/MLL-4-43 peptide interaction (Homo sapiens (Human), UniProt O00255); assay: Menin-MLL interaction inhibitory activity assay (fluorescence polarization competition); assay type: binding; settings: FITC-MLL4-43-peptide, Menin recombinant protein
Sequence of Menin/MLL-4-43 peptide interaction (O00255 whole entry, species assumed): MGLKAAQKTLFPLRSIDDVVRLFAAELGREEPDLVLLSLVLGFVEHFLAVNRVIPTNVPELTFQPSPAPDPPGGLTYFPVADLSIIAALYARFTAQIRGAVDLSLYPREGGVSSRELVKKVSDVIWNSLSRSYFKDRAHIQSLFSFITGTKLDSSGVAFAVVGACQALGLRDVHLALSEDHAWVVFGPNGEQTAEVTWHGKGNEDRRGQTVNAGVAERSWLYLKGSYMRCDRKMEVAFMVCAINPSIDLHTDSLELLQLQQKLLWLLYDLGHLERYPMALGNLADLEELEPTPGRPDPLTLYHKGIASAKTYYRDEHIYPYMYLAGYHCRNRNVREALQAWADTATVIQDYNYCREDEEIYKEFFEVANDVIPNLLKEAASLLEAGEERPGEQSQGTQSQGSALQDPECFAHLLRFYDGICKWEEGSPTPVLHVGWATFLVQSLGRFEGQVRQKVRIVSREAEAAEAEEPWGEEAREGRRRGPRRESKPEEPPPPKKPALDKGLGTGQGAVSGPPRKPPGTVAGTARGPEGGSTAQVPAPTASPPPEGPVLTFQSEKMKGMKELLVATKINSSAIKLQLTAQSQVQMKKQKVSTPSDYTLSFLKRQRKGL
Procedure, shortened: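 Menin (8 nM solution) was preincubated 15 min with compound, then FITC-MLL4-43 peptide (10 nM solution) was added and shaken for 60 min at 25 °C. The buffer was 50 mM Tris pH 7.5, 50 mM NaCl, 1 mM DTT. IC50 was derived from fluorescence polarization read at 485/520 nm.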

OCI-AML3 = assay: Cell proliferation inhibition (CellTiter-Glo), OCI-AML3 (NPM1 mutation); assay type: cell-based; settings: OCI-AML3 cells
Procedure, shortened: as §6

[4] = Stability in dog liver microsomes; assay type: in vitro ADME; settings: dog, liver microsomes, pH 7.4, Dog; 0.5 mg/mL microsomal protein, 1.00 μM compound, NADPH; read-out: Half life T1/2, dog liver microsomes
Description: as §1, §2, §3, §4, §5

[5] = molecular target: hERG potassium ion channel (Homo sapiens (Human), UniProt Q12809); assay: hERG potassium channel effect test (manual patch clamp, HEK293 cells overexpressing hERG); assay type: cell-based; settings: for inhibition at 30 μM: human, HEK293 cells overexpressing hERG potassium ion channels, read-out: Average inhibition rate of hERG current at the highest compound tested concentration; for IC50: manual patch clamp, highest test concentration 30 μM
Sequence of hERG potassium ion channel (Q12809 whole entry): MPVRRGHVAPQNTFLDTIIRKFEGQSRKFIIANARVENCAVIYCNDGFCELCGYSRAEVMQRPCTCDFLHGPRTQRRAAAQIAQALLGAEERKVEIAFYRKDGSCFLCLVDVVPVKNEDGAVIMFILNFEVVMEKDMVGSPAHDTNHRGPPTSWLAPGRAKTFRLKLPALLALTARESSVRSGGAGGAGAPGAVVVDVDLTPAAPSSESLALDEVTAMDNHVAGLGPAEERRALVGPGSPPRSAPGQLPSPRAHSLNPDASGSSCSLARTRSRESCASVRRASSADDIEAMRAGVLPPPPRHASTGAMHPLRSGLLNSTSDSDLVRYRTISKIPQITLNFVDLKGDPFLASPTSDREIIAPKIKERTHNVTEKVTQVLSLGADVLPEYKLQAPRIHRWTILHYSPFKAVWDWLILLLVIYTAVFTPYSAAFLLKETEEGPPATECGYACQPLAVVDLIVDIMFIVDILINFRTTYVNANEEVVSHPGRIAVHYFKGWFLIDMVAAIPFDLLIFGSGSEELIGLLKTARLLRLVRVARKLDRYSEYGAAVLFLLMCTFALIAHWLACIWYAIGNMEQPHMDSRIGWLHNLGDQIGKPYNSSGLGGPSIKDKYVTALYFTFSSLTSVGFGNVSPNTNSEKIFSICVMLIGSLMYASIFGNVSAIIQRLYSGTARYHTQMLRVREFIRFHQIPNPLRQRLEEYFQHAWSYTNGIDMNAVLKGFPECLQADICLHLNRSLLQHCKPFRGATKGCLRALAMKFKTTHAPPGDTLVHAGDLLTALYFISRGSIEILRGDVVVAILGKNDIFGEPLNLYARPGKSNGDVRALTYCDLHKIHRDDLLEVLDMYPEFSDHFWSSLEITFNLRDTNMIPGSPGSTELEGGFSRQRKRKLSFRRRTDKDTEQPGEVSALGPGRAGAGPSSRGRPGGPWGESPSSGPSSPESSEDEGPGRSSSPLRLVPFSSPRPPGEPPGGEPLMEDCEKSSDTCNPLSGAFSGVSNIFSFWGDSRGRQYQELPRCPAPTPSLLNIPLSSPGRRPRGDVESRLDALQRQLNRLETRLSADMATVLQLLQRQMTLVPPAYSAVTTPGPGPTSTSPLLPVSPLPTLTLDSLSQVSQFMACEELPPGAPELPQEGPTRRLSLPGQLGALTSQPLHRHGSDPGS
Description: Test Example 6: hERG Potassium Channel Effect Test
The hERG inhibition test was performed on some of the example compounds of the present disclosure using the manual electrophysiological patch clamp method. The cell line was derived from HEK293 cells that overexpressed hERG potassium ion channels. The specific experimental protocol was developed by PharmaCore Labs with reference to literature published in peer-reviewed journals and was performed by PharmaCore Labs in accordance with its standard experimental operating procedures. The highest test concentration was 30 μM.

[6] = Pharmacokinetics test in mouse; assay type: in vivo, ICR mice; settings: mice, p.o. 10 mg/kg
Text: Test Example 4. In Vivo Pharmacokinetic Study
Test purpose: To determine the pharmacokinetic properties of some of the example compounds of the present disclosure in mice, rats and dogs after single intravenous injection (i.v.) and oral gavage (i.g.) administration by LC-MS/MS method.
Research methods: An appropriate amount of compound was weighed and prepared into a transparent clear solution of a certain concentration using 0.9% sodium chloride injection and 1.5 equivalents of 1M HCl aqueous solution based on the molar number of the compound. After SPF male ICR mice, SPF male SD rats, and male beagle dogs were fasted overnight, the test compound solution was given by intravenous injection and oral gavage at the corresponding dose. Anticoagulated whole blood of the test animals was collected at 5 min, 15 min, 30 min, 1 h, 2 h, 4 h, 8 h, and 24 h after administration, and plasma was separated. Plasma samples at each time point were detected by LC-MS/MS, and the plasma concentration of the compound was determined by the standard curve correction method. Phoenix WinNonlin 5.2 non-compartmental model was used to calculate the pharmacokinetic parameters of terminal elimination half-life (t½), blood peak concentration (Cmax), area under the concentration-time curve (AUC), clearance (CL), and bioavailability (F %), which was directly obtained from the serum concentration results. Blood drug concentration and pharmacokinetic parameters are expressed as mean±standard deviation (X±SD). The specific test protocols for each species are as follows.
Pharmacokinetics Test in Mouse
Test animals: SPF male ICR mice, weighing 25-30 g, 12 mice/compound, purchased from Chengdu Dossy Experimental Animal Co., Ltd.
Test design: On the day of the test, ICR mice were randomly divided into groups according to body weight, fasted but with free water for 12-14 h one day before administration, and fed 2 h after administration.
Preparation of test compound solution: The concentration of the test compound for oral gavage was 1 mg/mL. An appropriate amount of compound was weighed and prepared into a 1 mg/mL transparent clear solution using 0.9% sodium chloride injection and 1.5 equivalents of 1M HCl aqueous solution. The concentration of the test compound for intravenous injection was 0.2 mg/mL. The 1 mg/mL transparent clear solution was diluted to a concentration of 0.2 mg/mL using 0.9% sodium chloride injection. The volume of 1 M HCl solution added was calculated as: volume of 1 M HCl solution added […]=weighed amount of compound (mg)/molecular weight×1.5×1000. The amount added during preparation must not exceed the calculated value.
The test substance was administered as follows: intravenous injection: 1 mg/kg of dose, 5 mL/kg of volume, 6 mice; oral gavage: 10 mg/kg of dose, 10 mL/kg of volume, 6 mice.
Sample collection: Blood (40-50 μl) was collected in anticoagulant tubes sprayed with EDTA-K2 through the orbital venous plexus at 5 min, 15 min, 30 min, 1 h, 2 h, 4 h, 8 h, and 24 h after administration, and centrifuged at 10,000 rpm for 20 min within 1 h (the blood was saved on wet ice before and after centrifugation). The supernatant, which was plasma, was collected and frozen in a refrigerator at −20° C. or below for LC-MS/MS analysis of Full PK of male ICR mice (2 mice per group, 4 blood collection time points per mouse, crossover).

[7] = male, ICR, mouse, plasma, po, 10 mg/kg

SMILES | half-life at 1 μM [1] [h] | GI50 (MV4-11; 72 h) [nM] | half-life at 1 μM [2] [h] | GI50 (MOLM-13; 168 h) [nM] | IC50 [3] [µM] | GI50 (OCI-AML3; 168 h) [nM] | half-life at 1 μM [4] [h] | GI50 (MV4-11; Homo sapiens, MV4-11, 72 h) [nM] | GI50 (MOLM-13; Homo sapiens, MOLM-13, 168 h) [nM] | GI50 (OCI-AML3; Homo sapiens, OCI-AML-3, 168 h) [nM] | AUC(0-t) [6, 7] [ng·h/mL] | half-life [6, 7] [h] | Cmax ([6]; male, ICR, mouse, plasma, po, 10 mg/kg, read-out: Cmax) [ng/mL] | AUClast [6] [ng·h/mL] | Cmax [6] [ng/mL] | T1/2 [6] [h] | F, % ([6]; 1 mg/kg for intravenous injection) | inhibition at 30 μM [5] [%] | IC50 [5] [µM]
CC(C)N(C(=O)c1cc(F)ccc1Oc1nncnc1N1CC2(CCN(C[C@H]3CC[C@@]4(CCC(=O)N4)CC3)CC2)C1)C(C)C [Example 8] | 0.786 |  | 1.11 |  | 0.0672 |  | 1.56 | 197 | 96.4 | 142 |  |  |  |  |  |  |  |  | 
CCN(C(=O)c1cc(F)ccc1Oc1nncnc1N1CC2(CCN(C[C@H]3CC[C@]4(CC3)CC(COC)(COC)C(=O)N4)CC2)C1)C(C)C [Example 19] | 1.35 |  | > 2 |  |  |  | > 2 | 13.2 | 33.1 | 28.5 |  |  |  |  |  |  |  | 12.8 | > 30

Continued, in another order:

half-life at 1 μM [1] [h] | GI50 (MV4-11; 72 h) [nM] | half-life at 1 μM [2] [h] | GI50 (MOLM-13; 168 h) [nM] | IC50 [3] [µM] | GI50 (OCI-AML3; 168 h) [nM] | half-life at 1 μM [4] [h] | GI50 (MV4-11; Homo sapiens, MV4-11, 72 h) [nM] | GI50 (MOLM-13; Homo sapiens, MOLM-13, 168 h) [nM] | GI50 (OCI-AML3; Homo sapiens, OCI-AML-3, 168 h) [nM] | AUC(0-t) [6, 7] [ng·h/mL] | half-life [6, 7] [h] | Cmax ([6]; male, ICR, mouse, plasma, po, 10 mg/kg, read-out: Cmax) [ng/mL] | AUClast [6] [ng·h/mL] | Cmax [6] [ng/mL] | T1/2 [6] [h] | F, % ([6]; 1 mg/kg for intravenous injection) | SMILES | inhibition at 30 μM [5] [%] | IC50 [5] [µM]
0.479 | 9.5 | 1.65 | 34.3 | 0.0103 | 20.1 | 1.17 |  |  |  |  |  |  |  |  |  |  | CC(C)N(C(=O)c1cc(F)ccc1Oc1nncnc1N1CC2(CCN(C[C@H]3CC[C@]4(CC3)CC(C(C)(C)O)C(=O)N4)CC2)C1)C(C)C (single isomer, unassigned) [Example 59-1b] |  | 
 |  |  |  | 0.034 |  |  | 47.8 | 46.5 | 242 | 7700 | 1.37 | 2620 | 8285 | 2535 | 1.91 | 84% and 72% | CC(C)N(C(=O)c1cc(F)ccc1Oc1cncnc1N1CC2(CCN(C[C@H]3CC[C@@]4(CCC(=O)N4)CC3)CC2)C1)C(C)C [Example 5] | 33.1 | > 30
1.3 |  | > 2 |  | 0.0621 |  | 1 | 137 | 389 | 323 |  |  |  |  |  |  |  | CCN(C(=O)c1cc(F)ccc1Oc1nncnc1N1CC2(CCN(C[C@H]3CC[C@@]4(CCC(=O)N4)CC3)CC2)C1)C(C)C [Example 7] |  | 
